Measured values published in PubChem BioAssay (NCI).
Where “and” joins values, the source holds several entries; their conditions need not be identical. Equal values may be shown once.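 Results reflect a 48-hour exposure of cells in 96-well plates to compound at five concentrations. GI50 = concentration required for 50% inhibition of growth. TGI is the concentration that stops growth completely.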

How the values were obtained:
Experiment in all cases: NCI tumour cell line growth inhibition, 48 h
NCI-H460 lung = system: NCI-H460 lung
COLO 205 colon = system: COLO 205 colon
IGROV1 ovarian = system: IGROV1 ovarian
UACC-62 melanoma = system: UACC-62 melanoma
HCT-15 colon = system: HCT-15 colon
MOLT-4 leukemia = system: MOLT-4 leukemia
BT-549 breast = system: BT-549 breast
CAKI-1 renal = system: CAKI-1 renal
NCI-H226 lung = system: NCI-H226 lung
KM12 colon = system: KM12 colon

| Compound | TGI (NCI-H460 lung) | TGI (COLO 205 colon) | TGI (IGROV1 ovarian) | TGI (UACC-62 melanoma) | TGI (HCT-15 colon) | TGI (MOLT-4 leukemia) | TGI (BT-549 breast) | TGI (CAKI-1 renal) | TGI (NCI-H226 lung) | TGI (KM12 colon) | GI50 (NCI-H460 lung) | GI50 (COLO 205 colon) | GI50 (IGROV1 ovarian) | GI50 (UACC-62 melanoma) | GI50 (CAKI-1 renal) | GI50 (KM12 colon) | GI50 (HCT-15 colon) | GI50 (MOLT-4 leukemia) | GI50 (NCI-H226 lung) |
| --- | --- | --- | --- | --- | --- | --- | --- | --- | --- | --- | --- | --- | --- | --- | --- | --- | --- | --- | --- |
| C/C(=N/NC(=S)N1CCN(C(=S)N/N=C(/C)c2ccccn2)CC1)c1ccccn1 | > 100 µM | > 100 µM | > 100 µM | > 100 µM | > 100 µM | > 100 µM | > 100 µM | > 100 µM | > 74.5 µM | > 100 µM |  |  |  |  |  |  |  |  |  |
| COc1ccccc1NC(=S)N/N=C/c1ccccn1 | 6.12 µM | > 16 µM |  | 3.75 µM | 29 µM |  | 77 µM | 16.8 µM | > 35.9 µM | > 31.6 µM |  |  |  |  |  |  |  |  |  |
| COc1cc(S(=O)(=O)Nc2ccc(-c3csc(/N=C\c4ccccc4)n3)cc2)ccc1Cl |  | > 100 µM | > 100 µM | > 100 µM | > 100 µM | 52.1 µM | > 100 µM | > 100 µM | > 100 µM | > 100 µM |  |  |  |  |  |  |  |  |  |
| COc1cc(CNC(=S)CCCCCCCCCCC(C)C)ccc1O | > 100 µM | > 100 µM | > 100 µM | > 100 µM | > 100 µM | > 100 µM |  |  | 86.3 µM | 94.4 µM |  |  |  |  |  |  |  |  |  |
| C=C(C)[C@@H]1CC[C@]2(CO)CC[C@]3(C)[C@H](CC[C@@H]4[C@@](C)(CCCN)[C@H](C(=C)C)CC[C@]43C)[C@@H]12 | 3.24 µM | 3.34 µM | 3.22 µM | 3.09 µM |  |  |  | 3.21 µM |  | 3.06 µM | 1.65 µM | 1.63 µM | 1.76 µM | 1.71 µM | 1.79 µM | 1.58 µM |  |  |  |
| Cn1c(=O)n(CC2CS2)c2ccccc21 (stereo not given) | > 100 µM | > 100 µM | > 100 µM | > 100 µM | > 100 µM | > 100 µM |  | > 100 µM | > 100 µM | > 100 µM |  |  |  |  |  |  |  |  |  |
| CCC1(OC(=O)CN)C(=O)OCc2c1cc1n(c2=O)Cc2cc3cc4c(cc3nc2-1)OCO4 (stereo not given) | 0.0159 µM and 0.0389 µM | 2.56 µM and 1.78 µM | 1.55 µM and 0.527 µM | < 0.01 µM | 26.8 µM and 10.2 µM | 0.0113 µM |  | 0.171 µM | 0.201 µM and 0.299 µM |  | < 0.01 µM | 0.362 µM and 0.15 µM | 0.0975 µM and 0.0367 µM | < 0.01 µM | < 0.01 µM | 0.126 µM and 0.187 µM | 0.126 µM and 0.0483 µM | < 0.01 µM | 0.024 µM and < 0.01 µM |
| O=C(O)COc1cc(-c2ccccc2)nc2ccccc12 | > 100 µM | > 100 µM | > 100 µM |  | > 100 µM | > 100 µM | > 100 µM | > 100 µM | > 100 µM | > 100 µM |  |  |  |  |  |  |  |  |  |
| CN(C)CCNC(=O)c1cc(NC(=O)c2cc(NC(=O)CC/C=C3/[C@@H]4CC[C@H]3N=N4)cn2C)cn1C | > 100 µM | > 100 µM | > 100 µM |  | > 100 µM | > 100 µM | > 100 µM | > 100 µM | > 100 µM | > 100 µM |  |  |  |  |  |  |  |  |  |
| CC(C#N)N(CCc1ccccc1)C(=O)c1ccccc1 (stereo not given) |  | > 100 µM | > 100 µM | > 100 µM | > 100 µM | > 100 µM | > 100 µM | > 100 µM | > 100 µM | > 100 µM |  |  |  |  |  |  |  |  |  |
| COc1ccc(NC(=O)CC(=O)N2N=C(N(c3ccccc3)c3ccccc3)CC2c2ccccc2)cc1 (stereo not given) |  | > 100 µM | > 100 µM | > 100 µM | > 100 µM | > 100 µM |  | > 100 µM | > 100 µM | > 100 µM |  |  |  |  |  |  |  |  |  |
| CC1(C)[C@@H](OC(N)=O)C=C[C@]2(CO)[C@H]3CC[C@]4(C)[C@@H](c5ccc(=O)oc5)[C@@H](Cl)C[C@]4(O)C3=CC[C@@H]12 | 0.00128 µM | 0.0244 µM | 0.0284 µM and 0.0829 µM | 0.013 µM | 0.0258 µM |  |  |  | 0.0168 µM | 0.0268 µM | < 0.0001 µM | 0.00578 µM | 0.00313 µM and 0.0025 µM | 0.00358 µM |  | 0.00456 µM | 0.00481 µM | < 0.0001 µM | 0.00448 µM |
| CC(=O)NC(=O)NC1=NCCC(=O)N1CCc1c[nH]c2ccccc12 | > 100 µM | > 100 µM | > 100 µM | > 100 µM | > 100 µM | > 100 µM |  | > 100 µM | > 100 µM | > 100 µM |  |  |  |  |  |  |  |  |  |
| CC1CN=C(c2ccc(CN3CCC(C4CCN(Cc5ccc(C6=NCC(C)N6)cc5)CC4)CC3)cc2)N1 (stereo not given) | 37.3 µM | 41.3 µM | > 100 µM | 41.7 µM | 94.7 µM | 46.5 µM | > 100 µM | > 100 µM |  | 31.8 µM |  |  |  |  |  |  |  |  |  |
| COc1cccc(C23CCCC(C2)N(C)CC3OC(=O)c2ccccc2)c1OC (stereo not given) | > 100 µM | 29 µM | 37.4 µM | 84.5 µM | 72.7 µM | 60.3 µM | 44.9 µM | > 100 µM |  | 61.3 µM |  |  |  |  |  |  |  |  |  |
